Measured values published in US12083178B2, “Anti-fibroblastic fluorochemical emulsion therapies” (priority 2010, dated 2024).

Test: Treatment of a dog with soft tissue sarcoma and lung metastasis by pulmonary aerosol administration
Assay type: in vivo, dog (Golden Retriever)
Conditions: agent aerosolized alone, without emulsion; general observation
Protocol: A 9 year old Golden Retriever with soft tissue sarcoma and extensive lung metastasis was treated with 9 mg/ml twice weekly for 10 weeks by pulmonary aerosol administration (FIG. 7A & FIG. 7B). […]

Structure (SMILES): Nc1ccn([C@@H]2O[C@H](CO)[C@@H](O)C2(F)F)c(=O)n1 [Gemcitabine, gemcitabine]
- necrosis in lung parenchyma and pleural metastasis: severe necrosis is always observed
